What was measured:
[1] = parameters: method as in PMID 21375264; details: acute and chronic toxicity tests in rats; cited from earlier work
[2] = test system: TNF-α and IL-6 production; parameters: method as in PMID 21375264; details: following oral administration; cited from earlier work
[3] = parameters: method as in PMID 21375264; details: cited from earlier work
[4] = Log D measurement (1-octanol/PBS); format: physicochemical; details: 1-octanol/PBS (pH = 7.4), room temperature
Experimental: The mixture was shaken for 10 min at room temperature, followed by centrifugation at 10,000 rpm for 10 min. The radioactivity in each phase was measured using a γ counter.

[5] = Biodistribution study after intravenous administration in normal ddY mice; format: in vivo
Experimental: Mice (n = 20, 5 weeks old, 23–29 g) were randomly assigned to five groups (n = 4 each). […] Sample size was limited to four animals per group in adherence to ethical guidelines for the reduction of animal use. Target tissues, including BAT, blood, muscle, bone, brain, heart, lung, stomach, pancreas, spleen, kidneys, liver, and small and large intestines, were excised and weighed, and the radioactivity of each tissue was measured using a γ-counter. The accumulation of radioactivity was expressed as the percentage of the injected dose per gram of tissue (%ID/g) for all tissues except for the stomach, for which it was expressed as the percentage of the injected dose per organ (%ID).

[6] = In vitro stability analysis in mouse plasma; format: in vitro ADME; details: 2 h incubation in mouse plasma at 37 °C, normal-phase TLC
[7] = PET/CT imaging of BAT in normal mouse; format: in vivo, ddY mice
Experimental: A small-animal PET/SPECT/CT scanner (E-Class VECTor^6CT^SD, MILabs, Utrecht, The Netherlands) was used, and it was equipped with a high-efficiency general purpose rat and mouse collimator. After the PET imaging, CT imaging was performed (exposure time: 40 ms, tube voltage: 55 kv, tube current: 0.33 mA). After the CT imaging, the mice were immediately euthanized under anesthesia, their BAT was removed and weighed, and its radioactivity was measured (n = 1). The raw data obtained from the PET scan were reconstructed using the SROSEM method and superimposed onto the CT images. […] The SUVs were then calculated using Amide software 1.0.6 (Slashdot Media, San Francisco, CA, USA).

[8] = test system: activated p38α; parameters: method as in PMID 34410619, PMID 35760973; details: cited from earlier work
[9] = 5 min after i.v. administration
[10] = 15 min after i.v. administration
[11] = 30 min after i.v. administration
[12] = 60 min after i.v. administration
[13] = 120 min after i.v. administration

Cn1c(=O)c(Oc2ccc(F)cc2F)cc2cnc(NC3CCOCC3)nc21 [R1487, 6-(2,4-difluorophenoxy)-8-methyl-2-(tetrahydro-2H-pyran-4-ylamino)pyrido [2,3-d]pyrimidin-7(8H)-one]
acceptable tolerability, no severe adverse events [1]: up to 10 mg/kg | production of TNF-α and IL-6 [2]: suppress | clearance route [3]: predominantly hepatic clearance | oral bioavailability ([3]; monkeys, oral administration): 51.6% | half-life in blood ([3]; monkeys): 22.5 h

Cn1c(=O)c(Oc2ccc([18F])cc2F)cc2cnc(NC3CCOCC3)nc21 [[^18F]R1487, 6-(4-[^18F]fluoro-2-fluorophenoxy)-8-methyl-2-(tetrahydro-2H-pyran-4-ylamino)-pyrido[2,3-d]pyrimidin-7(8H)-one]
logD [4]: 2.2 | Radioactivity in BAT [5, 9]: 16.3 ± 2.7 %ID/g | Radioactivity in Blood [5, 9]: 2.8 ± 0.1 %ID/g | Radioactivity in Bone [5, 9]: 6.4 ± 0.7 %ID/g | Radioactivity in Brain [5, 9]: 2.9 ± 0.5 %ID/g | Radioactivity in Heart [5, 9]: 5.0 ± 0.8 %ID/g | Radioactivity in Kidney [5, 9]: 7.7 ± 1.9 %ID/g | Radioactivity in Large intestine [5, 9]: 2.2 ± 0.7 %ID/g | Radioactivity in Liver [5, 9]: 11.3 ± 1.9 %ID/g | Radioactivity in Lung [5, 9]: 4.0 ± 0.6 %ID/g | Radioactivity in Muscle [5, 9]: 2.7 ± 0.5 %ID/g | Radioactivity in Pancreas [5, 9]: 4.4 ± 0.9 %ID/g | Radioactivity in Small intestine [5, 9]: 5.8 ± 1.0 %ID/g | Radioactivity in Spleen [5, 9]: 4.0 ± 0.9 %ID/g | Radioactivity in Stomach [5, 9]: 1.1 ± 0.2 %ID | Radioactivity in BAT [5, 10]: 8.0 ± 2.6 %ID/g | Radioactivity in Blood [5, 10]: 1.0 ± 0.2 %ID/g | Radioactivity in Bone [5, 10]: 5.1 ± 0.9 %ID/g | Radioactivity in Brain [5, 10]: 1.3 ± 0.6 %ID/g | Radioactivity in Heart [5, 10]: 2.8 ± 0.5 %ID/g | Radioactivity in Kidney [5, 10]: 5.1 ± 1.3 %ID/g | Radioactivity in Large intestine [5, 10]: 2.3 ± 0.4 %ID/g | Radioactivity in Liver [5, 10]: 5.9 ± 1.3 %ID/g | Radioactivity in Lung [5, 10]: 3.2 ± 0.8 %ID/g | Radioactivity in Muscle [5, 10]: 2.4 ± 0.3 %ID/g | Radioactivity in Pancreas [5, 10]: 2.4 ± 0.6 %ID/g | Radioactivity in Small intestine [5, 10]: 8.6 ± 1.9 %ID/g | Radioactivity in Spleen [5, 10]: 4.5 ± 0.8 %ID/g | Radioactivity in Stomach [5, 10]: 1.3 ± 0.5 %ID | Radioactivity in BAT [5, 11]: 5.2 ± 1.1 %ID/g | Radioactivity in Blood [5, 11]: 0.7 ± 0.1 %ID/g | Radioactivity in Bone [5, 11]: 6.7 ± 1.0 %ID/g | Radioactivity in Brain [5, 11]: 1.0 ± 0.6 %ID/g | Radioactivity in Heart [5, 11]: 2.3 ± 0.7 %ID/g | Radioactivity in Kidney [5, 11]: 3.5 ± 0.6 %ID/g | Radioactivity in Large intestine [5, 11]: 4.3 ± 3.7 %ID/g | Radioactivity in Liver [5, 11]: 4.7 ± 0.9 %ID/g | Radioactivity in Lung [5, 11]: 2.3 ± 0.5 %ID/g | Radioactivity in Muscle [5, 11]: 2.1 ± 0.2 %ID/g | Radioactivity in Pancreas [5, 11]: 1.9 ± 0.1 %ID/g | Radioactivity in Small intestine [5, 11]: 16.9 ± 4.0 %ID/g | Radioactivity in Spleen [5, 11]: 3.3 ± 0.5 %ID/g | Radioactivity in Stomach [5, 11]: 1.8 ± 0.4 %ID | Radioactivity in BAT [5, 12]: 2.2 ± 0.6 %ID/g | Radioactivity in Blood [5, 12]: 0.4 ± 0.1 %ID/g | Radioactivity in Bone [5, 12]: 6.9 ± 2.9 %ID/g | Radioactivity in Brain [5, 12]: 0.4 ± 0.2 %ID/g | Radioactivity in Heart [5, 12]: 1.4 ± 0.1 %ID/g | Radioactivity in Kidney [5, 12]: 2.4 ± 0.7 %ID/g | Radioactivity in Large intestine [5, 12]: 4.3 ± 1.6 %ID/g | Radioactivity in Liver [5, 12]: 3.4 ± 0.3 %ID/g | Radioactivity in Lung [5, 12]: 1.3 ±0.2 %ID/g | Radioactivity in Muscle [5, 12]: 1.0 ± 0.1 %ID/g | Radioactivity in Pancreas [5, 12]: 1.0 ± 0.1 %ID/g | Radioactivity in Small intestine [5, 12]: 23.8 ± 3.7 %ID/g | Radioactivity in Spleen [5, 12]: 1.7 ± 0.4 %ID/g | Radioactivity in Stomach [5, 12]: 4.1 ± 2.2 %ID | Radioactivity in BAT [5, 13]: 1.0 ± 0.2 %ID/g | Radioactivity in Blood [5, 13]: 0.2 ± 0.0 %ID/g | Radioactivity in Bone [5, 13]: 8.7 ± 2.3 %ID/g | Radioactivity in Brain [5, 13]: 0.2 ± 0.1 %ID/g | Radioactivity in Heart [5, 13]: 0.7 ± 0.1 %ID/g | Radioactivity in Kidney [5, 13]: 0.7 ± 0.1 %ID/g | Radioactivity in Large intestine [5, 13]: 32.6 ± 8.7 %ID/g | Radioactivity in Liver [5, 13]: 1.8 ± 0.9 %ID/g | Radioactivity in Lung [5, 13]: 0.4 ± 0.1 %ID/g | Radioactivity in Muscle [5, 13]: 0.5 ± 0.0 %ID/g | Radioactivity in Pancreas [5, 13]: 1.0 ± 0.4 %ID/g | Radioactivity in Small intestine [5, 13]: 13.0 ± 3.4 %ID/g | Radioactivity in Spleen [5, 13]: 0.9 ± 0.1 %ID/g | Radioactivity in Stomach [5, 13]: 1.2 ± 0.5 %ID | time of peak radioactivity in BAT ([5]; post-injection): 5 min | radioactivity detected in intact form [6]: more than 96% | mean standardized uptake value (SUV) in the BAT ([7]; PET 10–15 min post-intravenous administration, manual ROI): 4.7 | radioactivity in the excised BAT after PET/CT imaging ([7]; γ counter, immediately after PET/CT imaging, n = 1): 11.6 %ID/g

Cn1c(=O)c(Oc2ccc([77Br])cc2F)cc2cnc(NC3CCOCC3)nc21 [[^77Br]4-BR, 6-(4-[^77Br]bromo-2-fluorophenoxy)-8-methyl-2-(tetrahydro-2H-pyran-4-ylamino)-pyrido[2,3-d]pyrimidin-7(8H)-one]
inflamed site-to-blood ratio ([8]; at 2 h): 4.1 | time of peak radioactivity accumulation in inflamed tissues ([8]; post-injection): 15 min
